Ends that are not written are not given here.
Columns and labels:
Balb/c mice = assay: Murine GvHD model, bone marrow transplant; type: in vivo, mouse; conditions: for protection from GvHD: 300 μg Hsp47-Gst protein with graft cells, single injection day 0, monitored 4 weeks, 5 animals
Protocol: Male Balb/c mice were twice irradiated with 500 Rads prior to transplantation. Bone marrow (BM) and spleen derived stem cells were obtained from B10D2 (H-2^d background) mice. 2.5×10^6 BM and 1×10^6 spleen cells were pooled as a graft source for each recipient male Balb/c animal. This non-enriched stem cell population of cells were either suspended in RPMI containing 300 μg Hsp47-Gst protein in 300 μl total volume, or, in buffer containing 100 μg of Gst control protein alone. Cells and protein were given in a single injection on day 0. No other immunosuppressive treatments were given. Animals were monitored for 4 weeks after the bone marrow transplant.

granzyme A = molecular target: T1, granzyme A (Homo sapiens, UniProt P12544); assay: BLT esterase or SDS-PAGE gelshift assays with granzymes; type: biochemical; conditions: data not shown
T1 sequence (P12544 29-262): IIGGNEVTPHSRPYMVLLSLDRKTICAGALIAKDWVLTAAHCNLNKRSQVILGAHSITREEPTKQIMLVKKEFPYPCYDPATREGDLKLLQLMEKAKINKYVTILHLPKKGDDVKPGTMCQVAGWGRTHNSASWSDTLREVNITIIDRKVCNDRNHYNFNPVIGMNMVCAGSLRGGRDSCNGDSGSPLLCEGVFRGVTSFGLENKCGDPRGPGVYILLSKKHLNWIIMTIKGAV
Excerpt: By sequence homology, Hsp47 is a serine protease inhibitor with theoretical specificity for lysine at the active site of incoming serine proteases. Serpins act as “bait” representing cleavable substrates which form a stable instead of a transitory covalent bond with the active center of serine proteases. […] Thus, serpins inactivate serine proteases in a stoichiometric ratio of 1:1. Despite the sequence relationship, no substrate serine protease has so far been identified for Hsp47. Some authors expect the serpin-domain to be nonfunctional because its “active site” amino acids are modified (Hirayoshi et al., Mol Cell Biol 11:4036-4044 (1991)). […] In ^51Cr-release assays, deletion of the serpin domain led to loss of function of the affected truncation mutants. However, as further deletions of the gene re-established full function to the smaller truncated Hsp47 mutants, expressing then little more than the H1,A-A2-consensus region discussed below, we assume that the loss of function of the C-terminal truncation of Hsp47's serpin domain causes a conformational change in the protein which normalizes with further truncation. […]

HUVEC = assay: ^51Cr release CIK cytotoxicity assay, endothelial cell targets pre-treated with BFA, protein or peptide; type: cell-based, human
Protocol: (§1) Target cells were metabolically labelled with ^51Cr (Dupont—New England Nuclear, Boston, Mass.) by incubating 1×10^6 cells in […] ^51Cr at 37° C. for 1-1.5 hours. The labelled cells were washed three times with phosphate buffered saline (PBS) containing 0.1% bovine serum albumin. The labelled cells were distributed in flat-bottomed 96 well microtiter plates at a concentration of 2×10^4 cells/well in triplicate. Effector (CIK) cells were added at the indicated ratios. Mabs were added prior to the addition of effector cells, and incubated for 15-30 minutes at room temperature. The final volume of the assay mixture in each well was 0.2 ml. After 4 hours at 37° C., the cells were collected by centrifugation and an aliquot of the supernatant was counted in a gamma counter (Micromedic Systems, Horsham, Pa.). The percentage of specific ^51Cr release was calculated according to the following equation: […]
Spontaneous release was obtained by incubating the labelled cells in complete medium alone and maximal release by treatment of the cells with 1% NP-40.
For brefeldin A (BFA) treatment, freshly confluent HUVEC monolayers, nonadherent target cells or CIK cells at 0.5-2×10^6 cells per ml were incubated with medium supplemented with 0.5-10 μg of brefeldin A (B6hringer Mannheim GmbH, Mannheim, Germany) per ml medium and incubated for 2-6 hours in a humidified incubator with 5% carbon dioxide at 37° C. BFA was dissolved at 100 μg per ml in 70% ethanol and used fresh or stored up to 4 weeks at −20° C. Prior to cytotoxicity assay the cells were rinsed three times with PBS, and fresh medium not containing BFA was added for the remainder of the assay (FIG. 4).
Both HUVEC and OCI-Ly8 cells were incubated with BFA at concentrations of 0, 2.5, 5, 7.5 and 10 μM for 6 hours as described above, washed, labeled with ^51Cr and used in a cytotoxicity assay with d21 CIK cells at an E:T ratio of 20:1. Preincubation of EC targets with 2.5 μM BFA reduced CIK mediated cytotoxicity by 40%.
Subsequent to ^51Cr labeling but prior to addition of effector cells 10-200 μg FPLC purified Hsp47 (Example 7) protein or 10 nM to 10 μM HPLC purified peptide […] (SEQ ID NO:3) (Example 8), both in sterile PBS at pH 7.4 and diluted to the final concentration with RPMI, were added to targets per ml of medium and incubated for 30 minutes at 37° C. in a humidified atmosphere of 5% CO2. In assays using purified protein, targets were subjected to three subsequent washes with 10 volumes of Ca^2+, Mg^2+ and 5% FCS containing PBS prior to providing fresh standard culture medium to the target cells. In assays using purified peptide, the added peptide was present for the entire assay. The remainder of the assay was performed as detailed above, at 37° C. in a humidified atmosphere of 5% CO2.

[1] = Solubility of synthesized peptide; type: physicochemical; conditions: used in PBS and RPMI 1640
Protocol: A hydrophilic 9 mer peptide of the sequence […] (SEQ ID NO:3) which corresponds to the region of shared homology of Hsp47 with HLA-A2 was synthesized by the Stanford PAN facility on a BioApplied® peptide synthesizer, HPLC purified and verified by amino acid sequencing. Pure peptide was lyophilized and stored at −20° C.

OCI-Ly8 tumor cell = assay: ^51Cr release CIK cytotoxicity assay, tumor targets; type: cell-based, human; conditions: peptide 10 μM, E:T 20:1
Protocol: as §1
Spontaneous release was obtained by incubating the labelled cells in complete medium alone and maximal release by treatment of the cells with 1% NP-40. […]

major serine proteases = conditions: Davids et al. 1995; cited from earlier work

Question: For “huHsp47-GST protein: fusion protein of human Hsp47 and N-terminally tagged glutathione-S-transferase, expressed in bacteria”, which “protection from GvHD” value (Balb/c mice) is on record?
Answer: Its value is “none developed graft vs. host disease”.

Question: What about the “protection from GvHD” value (Balb/c mice; listed as Hsp-Gst protein) of the same molecule?
Answer: Its value is “protected from the onset of GvHD, fur ruffling, weight loss and death”.

Question: What about the opportunistic infection (Balb/c mice; full body irradiated mice, BMT, over the time period tested) of the same molecule?
Answer: Its opportunistic infection is “none developed opportunistic infection”.

Question: And the “irreversible inhibition of granzymes” value (granzyme A)?
Answer: Its value is “not able to demonstrate a function of Hsp47 as an irreversible inhibitor”.

Question: What about the “reduction of EC lysis” value (HUVEC; 1 μM huHsp47-GST protein) of the same molecule?
Answer: Its value is 50%.

Question: What about the “protection of EC by purified recombinant protein” value (HUVEC; dose response) of the same molecule?
Answer: Its value is “protects EC in a dose responsive fashion”.

Question: And the “protection of EC from CIK mediated lysis” value (HUVEC; pre-incubation with 10 μM huHsp47-GST protein)?
Answer: Its value is “completely protects”.

Question: Which “solubility in aqueous solution” value [1] does the source give for AVLSAEQLR here?
Answer: The value was “soluble in aqueous solution”.

Question: And the “reduction of specific target lysis, CIK-OCI-Ly8 tumor cell ^51Cr cytotoxicity assay” value (OCI-Ly8 tumor cell)?
Answer: The value was “less than 10%”.

B1: murine Hsp47: purified murine Hsp47 from cited work (protein, UniProt P19324 18-417, looked up)
Serpin H1: AEVKKPLEAAAPGTAEKLSSKATTLAERSTGLAFSLYQAMAKDQAVENILLSPLVVASSLGLVSLGGKATTASQAKAVLSAEKLRDEEVHTGLGELLRSLSNSTARNVTWKLGSRLYGPSSVSFADDFVRSSKQHYNCEHSKINFRDKRSALQSINEWASQTTDGKLPEVTKDVERTDGALLVNAMFFKPHWDEKFHHKMVDNRGFMVTRSYTVGVTMMHRTGLYNYYDDEKEKLQMVEMPLAHKLSSLIILMPHHVEPLERLEKLLTKEQLKAWMGKMQKKAVAISLPKGVVEVTHDLQKHLAGLGLTEAIDKNKADLSRMSGKKDLYLASVFHATAFEWDTEGNPFDQDIYGREELRSPKLFYADHPFIFLVRDNQSGSLLFIGRLVRPKGDKMRDEL
Question: For B1, which “inhibition of major serine proteases” value (major serine proteases) is on record?
Answer: The value was “failed to inhibit”.

— US20080241194A1, “COMPOSITIONS AND METHODS FOR PROTECTING ORGANS, TISSUE AND CELLS FROM IMMUNE SYSTEM-MEDIATED DAMAGE” (THE BOARD OF TRUSTEES OF THE LELAND STANFORD JUNIOR …, priority 1998, published 2008)
